Measured values as given in patent publication US5679671A, “Amino acid derivative” (Eisai Co., Ltd., priority 1993, dated 1997).

Tests used:
Type in all cases: biochemical
ACE [1] = molecular target: T1, ACE (Rattus norvegicus, UniProt P47820); test: ACE inhibition activity (Experiment F-1); conditions: rat lung membrane fraction, pH 8.3
T1 construct: membrane fraction prepared from rat lung; from tissue; host or cells: rat lung, membrane fraction (method of Wu-Wong et al.)
T1 sequence (P47820 36-1313): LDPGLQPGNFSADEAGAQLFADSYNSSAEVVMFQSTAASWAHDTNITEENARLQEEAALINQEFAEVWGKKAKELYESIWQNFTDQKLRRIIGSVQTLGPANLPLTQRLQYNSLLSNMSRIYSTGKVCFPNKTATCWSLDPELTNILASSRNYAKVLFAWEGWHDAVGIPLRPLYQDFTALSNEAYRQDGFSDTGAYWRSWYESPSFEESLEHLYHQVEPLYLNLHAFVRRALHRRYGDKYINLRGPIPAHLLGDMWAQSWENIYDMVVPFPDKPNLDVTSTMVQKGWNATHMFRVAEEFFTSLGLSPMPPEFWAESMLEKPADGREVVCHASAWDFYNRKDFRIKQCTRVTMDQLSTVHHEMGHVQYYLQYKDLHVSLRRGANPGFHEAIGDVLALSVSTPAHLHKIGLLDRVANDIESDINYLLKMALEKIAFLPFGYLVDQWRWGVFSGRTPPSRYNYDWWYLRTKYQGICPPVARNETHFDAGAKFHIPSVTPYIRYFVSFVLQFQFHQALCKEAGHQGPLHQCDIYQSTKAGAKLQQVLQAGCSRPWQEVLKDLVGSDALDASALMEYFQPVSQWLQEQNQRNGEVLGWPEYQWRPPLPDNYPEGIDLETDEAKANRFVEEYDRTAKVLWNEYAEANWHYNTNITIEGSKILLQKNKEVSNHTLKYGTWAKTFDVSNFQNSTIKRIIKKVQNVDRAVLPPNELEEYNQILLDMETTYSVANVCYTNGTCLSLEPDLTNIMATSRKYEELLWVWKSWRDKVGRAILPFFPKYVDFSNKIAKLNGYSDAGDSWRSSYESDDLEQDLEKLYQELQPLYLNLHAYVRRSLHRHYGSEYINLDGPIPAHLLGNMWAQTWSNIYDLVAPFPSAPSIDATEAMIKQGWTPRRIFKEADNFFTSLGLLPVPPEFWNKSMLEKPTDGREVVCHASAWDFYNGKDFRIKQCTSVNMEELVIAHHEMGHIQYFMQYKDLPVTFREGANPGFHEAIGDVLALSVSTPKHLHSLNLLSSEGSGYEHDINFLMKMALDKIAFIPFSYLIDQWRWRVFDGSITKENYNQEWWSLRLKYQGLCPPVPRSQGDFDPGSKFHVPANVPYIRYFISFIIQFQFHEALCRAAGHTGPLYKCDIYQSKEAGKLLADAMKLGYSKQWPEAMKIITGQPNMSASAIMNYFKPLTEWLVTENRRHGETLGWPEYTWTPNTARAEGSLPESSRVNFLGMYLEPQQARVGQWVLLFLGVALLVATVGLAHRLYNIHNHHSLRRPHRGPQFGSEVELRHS
Procedure: As a source of the enzyme ACE, a membrane fraction prepared from rat lung in accordance with the method of Wu-Wong et al. (Characterization of Endthelin Converting Enzyme in Rat Lung., Jinshyum R. Wu-Wong, Gerald P. Budzik, Edward M, Devine and Terry J. Opgenorth, Biochem. Biophys. Res. Commun., 1990, 171, 1291-1296.) was used. The ACE activity was determined with the use of a modification (modified to a borate buffer pH 8.3) of the method of Cushman and Cheung (Spectrophotometric Assay and Properties of the Angiotensin-Converting Enzyme of Rabbit Lung., Cushman D. W. and Cheung H. S., 1971, 20, 1637-1648.). Now the procedure will be briefly described.
In the presence of ACE, the hippurate liberated from hippuryl-histidyl-leucine (Hippuryl-His-Leu (Peptide Institute Inc., Japan)) was extracted with ethyl acetate and then the absorbance was measured at a wavelength of 228 nm.
(§1) With respect to the NEP inhibition activity and the ACE inhibition activity, the inhibitor was added to the assay systems of both enzyme activities as described above in such a manner as to give the final concentrations of 1, 3, 10, 30, 100, 300 and 1000 inhibition curves were prepared, and then the concentration at which 50% inhibition was achieved was taken as IC50.

NEP [2] = molecular target: T2, NEP (Rattus norvegicus, UniProt P07861); test: NEP inhibition activity (Experiment F-1); design: membrane fraction prepared from rat renal cortex; from tissue; host or cells: rat renal cortex, membrane fraction (method of Booth and Kenny); conditions: rat renal cortex membrane fraction
T2 sequence (P07861 1-750): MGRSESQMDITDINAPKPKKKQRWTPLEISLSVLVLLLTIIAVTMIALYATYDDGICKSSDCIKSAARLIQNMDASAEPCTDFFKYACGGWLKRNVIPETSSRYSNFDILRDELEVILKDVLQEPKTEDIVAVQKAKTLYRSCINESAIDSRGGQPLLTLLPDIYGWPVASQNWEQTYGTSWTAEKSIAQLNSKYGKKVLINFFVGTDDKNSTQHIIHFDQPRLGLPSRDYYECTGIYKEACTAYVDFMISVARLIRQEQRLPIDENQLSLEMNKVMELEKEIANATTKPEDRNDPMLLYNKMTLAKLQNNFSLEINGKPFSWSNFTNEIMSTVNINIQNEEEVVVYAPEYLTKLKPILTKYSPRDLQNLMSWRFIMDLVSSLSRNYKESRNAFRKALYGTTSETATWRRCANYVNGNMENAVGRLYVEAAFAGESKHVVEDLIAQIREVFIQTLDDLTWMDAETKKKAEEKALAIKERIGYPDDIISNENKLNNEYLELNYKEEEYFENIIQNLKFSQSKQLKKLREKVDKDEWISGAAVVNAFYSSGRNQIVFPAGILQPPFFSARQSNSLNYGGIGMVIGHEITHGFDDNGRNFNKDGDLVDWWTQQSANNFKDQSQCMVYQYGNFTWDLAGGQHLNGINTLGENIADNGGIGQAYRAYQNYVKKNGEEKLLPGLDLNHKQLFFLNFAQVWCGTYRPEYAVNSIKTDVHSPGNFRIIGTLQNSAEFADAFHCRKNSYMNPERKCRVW
Procedure: As a source of the enzyme NEP, a membrane fraction prepared from rat renal cortex in accordance with the method of Booth and Kenny (A Rapid Method for the Purification of Microvilli from Rabbit Kidney., Andrew G. Booth and A. John Kenny, Biochem. j., 1974, 142, 575-581.) was employed. The NEP activity was determined in accordance with the method of Orlowsky and Wilk (Purification and Specificity of a Membrane-Bound Metalloendpeptidase from Bovine Pituitaries., Marian Orlowsky and Shrwin Wilk, Biochemistry, 1981, 20, 4942-4950.). Now the procedure will be briefly described.
(§2) As a substrate, benzoyl-glycyl-arginyl-arginyl-2-naphthylamide (benzoyl-Gly-Arg-Arg-2-naphthylamide (Nova Biochem, Switzerland)) was used. In the presence of an NEP enzyme preparation and excessive leucine aminopeptidase (sigma chemical Co., U.S.A.), the liberated naphthylamine was made to undergo color development with first garnet (Sigma chemical Co., U.S.A.), followed by the measurement of the absorbance at a wavelength of 540 nm.
as §1

NEP [3] = molecular target: T2, NEP; test: NEP inhibition activity (Experiment C-1); conditions: Table C-1
Procedure: The NEP activity was determined by the following manner in accordance with the method of Orlowsky and Wilk (Purification and Specificity of a Membrane-Bound Metalloendpeptidase from Bovine Pituitaries., Marian Orlowsky and Shrwin Wilk, Biochemistry, 1981, 20, 4942-4950.).
as §2
(§3) With respect to the NEP inhibition activity, the test compound was added to the experimental system as described above in such a manner as to give the final concentrations of 1, 3, 10, 30, 100, 300 and 1000 nM, an inhibition curve was prepared, and then the concentration at which 50% inhibition was achieved was taken as IC50. As a comparative compound, [4S-[4α,7α(R*),12bβ]]-7-[(1-oxo-2-(S)-thio-3-phenyl-propyl)amino]-1,2,3,4,6,7,8,12b-octahydro-6-oxopyrido-[2,1-a][2]benzazepine-4-carboxylic acid was used.

ACE [4] = molecular target: T1, ACE; test: ACE inhibition activity using rat lung (Experiment C-2); conditions: Table C-1; rat lung membrane fraction, borate buffer pH 8.3
Procedure: The ACE inhibition activity was determined by using a membrane fraction prepared from rat lung in accordance with the method of Wu-Wong et al. (Characterization of Endthelin Converting Enzyme in Rat Lung., Junshyum R. Wu-Wong, Gerald P. Budzik, Edward M. Devine and Terry J. Opgenorth, Biochem. Biophys. Res. Commun., 1990, 171, 1291-1296.).
The ACE activity was determined with the use of a modification (modified to a borate buffer, pH 8.3) of the method of Cushman and Cheung (Spectrophotometric Assay and Properties of the Angiotensin-Converting Enzyme of Rabbit Lung., Cushman D. W. and Cheung H. S., 1971, 20, 1637-1648.).
In the presence of ACE, the hippurate liberated from hippuryl-histidyl-leucine (Hippuryl-His-Leu (PeptideInstitute Inc., Japan)) was extracted with ethyl acetate and then the absorbance was measured at a wavelength of 228 nm.
as §3, with “ACE” for “NEP”, “reaction” for “experimental”

| IC50 (ACE [1]) | IC50 (NEP [2]) | IC50 (NEP [3]) | IC50 (ACE [4]) | SMILES |
| --- | --- | --- | --- | --- |
| 0.007 µM | 0.0056 µM |  |  | O=C(N[C@H]1CCC[C@H]2SC[C@@H](C(=O)O)N2C1=O)[C@@H](CS)Cc1ccccc1 [Example F-18, [3R-[3α,6α(S*),9aβ]]-6-[[(S)-1-Oxo-2-thiomethyl-3-phenylpropyl]amino]-octahydro-5-oxothiazol[3,2-a]-azepine-3-carboxylic acid] |
| 0.013 µM | 0.008 µM |  |  | CC[C@H](S)C(=O)N[C@H]1CCC[C@H]2SC[C@@H](C(=O)O)N2C1=O [Example F-24, [3R-[3α,6α(S*),9aβ]]-6-[(S)-1-Oxo-2-thiobutylamino]-octahydro-5-oxothiazol[3,2-a]azepine-3-carboxylic acid] |
| 0.0135 µM | 0.104 µM |  |  | COc1ccc(C[C@H](S)C(=O)N[C@H]2CCC[C@H]3SC[C@@H](C(=O)O)N3C2=O)cc1 [Example F-19, [3R-[3α,6α(S*),9aβ]]-6-[[(S)-1-Oxo-2-thio-3-(4-methoxyphenyl)propyl]amino]-octahydro-5-oxothiazol-[3,2-a]azepine-3-carboxylic acid] |
| 0.013 µM | 0.009 µM |  |  | O=C(N[C@H]1CCC[C@H]2SC[C@@H](C(=O)O)N2C1=O)[C@@H](S)Cc1cccs1 [Example F-22, [3R-[3α,6α(S*),9aβ]]-6-[[(S)-1-Oxo-2-thio-3-(2-thienyl)propyl]amino]-octahydro-5-oxothiazol-[3,2-a]azepine-3-carboxylic acid] |
| 0.048 µM | 0.0171 µM |  |  | O=C(O)CNC(=O)[C@@H](CS)Cc1ccc2c(c1)OCO2 [Comp cpd. F-1, N[1oxo-2(S)-mercaptomethyl-3-(3,4-methylenedioxy-phenyl)propyl]glycine, reference compound] |
| 0.009 µM | 0.265 µM |  |  | CC(C)[C@H](S)C(=O)N[C@H]1CCC[C@H]2SC[C@@H](C(=O)O)N2C1=O [Example F-25, [3R-[3α,6α(S*),9aβ]]-6-[(S)-1-Oxo-2-thio-3-methylbutylamino]-octahydro-5-oxothiazol[3,2-a]azepine-3-carboxylic acid] |
|  |  | 0.0151 µM | 0.0125 µM | CC[C@H](C)[C@H](S)C(=O)N[C@H]1CSc2ccccc2N(CC(=O)O)C1=O [Example C-12, (R)-3-[[(2S,3S)-3-Methyl-1-oxo-2-thiopentyl]amino]-5-carboxymethyl-2,3-dihydro-1,5-benzothiazepin-4(5H)-one] |
| 0.008 µM | 0.12 µM |  |  | CC[C@@H](C)[C@H](S)C(=O)N[C@H]1CCC[C@H]2SC[C@@H](C(=O)O)N2C1=O [Example F-23, [3R-[3α,6α(S*),9aβ]]-6-[[(S, 3R)-1-Oxo-2-thio-3-methylpentylamino]-octahydro-5-oxothiazol-[3,2-a]azepine-3-carboxylic acid] |
| 0.0077 µM | 0.0225 µM |  |  | O=C(N[C@H]1CCC[C@H]2SC[C@@H](C(=O)O)N2C1=O)[C@@H](S)Cc1ccc(F)cc1 [Example F-14, [3R-[3α,6α(S*),9aβ]]-6[[(S)-1-Oxo-2-thio-3-(4-fluorophenyl)propyl]amino]-octahydro-5-oxothiazol [3,2-a]azepine-3-carboxylic acid] |
| 0.016 µM | 0.0565 µM |  |  | O=C(N[C@H]1CCC[C@H]2SC[C@@H](C(=O)O)N2C1=O)[C@@H](S)Cc1ccc(-c2ccccc2)cc1 [Example F-20, [3R-[3α,6α(S*),9aβ]]-6-[[(S)-1-Oxo-2-thio-3-(1,4-biphenyl)propyl]amino]-octahydro-5-oxothiazol[3,2-a]azepine3-carboxylic acid] |
